Source: PMC11212140, “Molecular Bidents with Two Electrophilic Warheads as a New Pharmacological Modality” (ACS Central Science, 2024)

How the values were obtained:
Experiment in all cases: KiNativ profiling in H3255 cells
Format in all cases: cell-based, human
GSK3B = test system: T1, GSK3B; settings: 2.5 µM; Lys2; DIKPQNLLLDPDTAVLK
T1 construct: purchased ActivX Biosciences (KiNativ)
Experimental: (§1) H3255 cells were plated with 6.5x10^6 per condition in fresh media in 15 cm plates and treated the 80% confluency for 2 hours with DMSO or 2.5 μM of ZNL-0056. To harvest cells, plates were washed 3 times with cold PBS, then collected by scraping into 4 mL of cold PBS containing protease and phosphatase inhibitors. Cells were pelleted by centrifugation at 1350 g at 4 ℃ for 5 minutes and immediately frozen in liquid nitrogen. The frozen samples were sent to ActivX Biosciences (La Jolla, CA) for the remainder of the KiNativ profiling experiment4. […]

NEK4 = test system: T2, NEK4; settings: 2.5 µM; Lys2; DLKTQNVFLTR
T2 construct: purchased ActivX Biosciences (KiNativ)
Experimental: as §1

[1] = test system: RSK1 domain1, RSK2 domain1, RSK3 domain1; settings: 2.5 µM; Lys2; DLKPENILLDEEGHIK
Experimental: as §1

PFTAIRE1 = test system: T3, PFTAIRE1; settings: 2.5 µM; Lys1; LVALKVIR
T3 construct: purchased ActivX Biosciences (KiNativ)
Experimental: as §1

TLK2 = test system: T4, TLK2; settings: 2.5 µM
T4 construct: purchased ActivX Biosciences (KiNativ)
Experimental: as §1

RON = test system: T5, RON; settings: 2.5 µM; Lys1; IQCAIKSLSR
T5 construct: purchased ActivX Biosciences (KiNativ)
Experimental: as §1

CaMK2g = test system: T6, CaMK2g; settings: 2.5 µM; Lys1; TSTQEYAAKIINTK
T6 construct: purchased ActivX Biosciences (KiNativ)
Experimental: as §1

IKKe, TBK1 = settings: 2.5 µM; Lys2; DIKPGNIMR
Experimental: as §1

p70S6Kb = test system: T7, p70S6Kb; settings: 2.5 µM; Lys2; DLKPENIMLSSQGHIK
T7 construct: purchased ActivX Biosciences (KiNativ)
Experimental: as §1

MAP2K6 = test system: T8, MAP2K6; settings: 2.5 µM
T8 construct: purchased ActivX Biosciences (KiNativ)
Experimental: as §1

CLK3 = test system: T9, CLK3; settings: 2.5 µM
T9 construct: purchased ActivX Biosciences (KiNativ)
Experimental: as §1

NEK7 = test system: T10, NEK7; settings: 2.5 µM; Lys1; AACLLDGVPVALKK
T10 construct: purchased ActivX Biosciences (KiNativ)
Experimental: as §1

CSK = test system: T11, CSK; settings: 2.5 µM
T11 construct: purchased ActivX Biosciences (KiNativ)
Experimental: as §1

MST1 = test system: T12, MST1; settings: 2.5 µM; Lys1; ETGQIVAIKQVPVESDLQEIIK
T12 construct: purchased ActivX Biosciences (KiNativ)
Experimental: as §1

ZAK = test system: T13, ZAK; settings: 2.5 µM; Lys1; WISQDKEVAVKK
T13 construct: purchased ActivX Biosciences (KiNativ)
Experimental: as §1

PI4KB = test system: T14, PI4KB; settings: 2.5 µM, ATP
T14 construct: purchased ActivX Biosciences (KiNativ)
Experimental: as §1

CDC2 = test system: T15, CDC2; settings: 2.5 µM
T15 construct: purchased ActivX Biosciences (KiNativ)
Experimental: as §1

CK2a1 = test system: T16, CK2a1; settings: 2.5 µM; Protein Kinase Domain; GGPNIITLADIVKDPVSR
T16 construct: purchased ActivX Biosciences (KiNativ)
Experimental: as §1

MAP4K5 = test system: T17, MAP4K5; settings: 2.5 µM
T17 construct: purchased ActivX Biosciences (KiNativ)
Experimental: as §1

LOK = test system: T18, LOK; settings: 2.5 µM; Lys2; DLKAGNVLMTLEGDIR
T18 construct: purchased ActivX Biosciences (KiNativ)
Experimental: as §1

RSK2 domain2 = test system: T19, RSK2 domain2; settings: 2.5 µM; Lys2; DLKPSNILYVDESGNPESIR
T19 construct: RSK2 domain2; purchased ActivX Biosciences (KiNativ)
Experimental: as §1

LATS2 = test system: T20, LATS2; settings: 2.5 µM
T20 construct: purchased ActivX Biosciences (KiNativ)
Experimental: as §1

MSK2 domain1 = test system: T21, MSK2 domain1; settings: 2.5 µM
T21 construct: MSK2 domain1; purchased ActivX Biosciences (KiNativ)
Experimental: as §1

NEK6, NEK7 = settings: 2.5 µM; Lys2; DIKPANVFITATGVVK
Experimental: as §1

PIK3C3 = test system: T22, PIK3C3; settings: 2.5 µM; ATP; TEDGGKYPVIFKHGDDLRQDQLILQIISLMDK
T22 construct: purchased ActivX Biosciences (KiNativ)
Experimental: as §1

FAM20B = test system: T23, FAM20B; settings: 2.5 µM; ATP; ETEPACADGDIMEGSVTLWLPDVWPLQKHR
T23 construct: purchased ActivX Biosciences (KiNativ)
Experimental: as §1

PCTAIRE2, PCTAIRE3 = settings: 2.5 µM; Lys1; SKLTENLVALKEIR
Experimental: as §1

SMG1 = test system: T24, SMG1; settings: 2.5 µM, ATP
T24 construct: purchased ActivX Biosciences (KiNativ)
Experimental: as §1

MAPKAPK2, MAPKAPK3 = settings: 2.5 µM; Lys2; DVKPENLLYTSK
Experimental: as §1

CK1d, CK1e = settings: 2.5 µM; Lys2; DVKPDNFLMGLGKK
Experimental: as §1

IRAK1 = test system: T25, IRAK1; settings: 2.5 µM; Lys2; AIQFLHQDSPSLIHGDIKSSNVLLDER
T25 construct: purchased ActivX Biosciences (KiNativ)
Experimental: as §1

[2] = Lys2, YLNEIKPPIIHYDLKPGNILLVNGTACGEIK
[3] = ATP Loop, YEIVGNLGEGTFGKVVECLDHAR
[4] = Lys2, FLHENQLTHTDLKPENILFVNSEFETLYNEHK
[5] = Activation Loop, VSDFGLTKEASSTQDTGKLPVK
[6] = Lys1, VAVKCIKNDATAQAFLAEASVMTQLR
[7] = Protein Kinase Domain, KPLFHGDSEIDQLFR

**Q.** How did the Inhibition (GSK3B) turn out when `C=CC(=O)Nc1cc(Nc2nccc(-c3cn(C)c4ccccc34)n2)c(OC)cc1N(C)CCN(C)C` [Osimertinib, osimertinib, reference compound] was run?
**A.** The Inhibition was -0.3%.

**Q.** What about the Inhibition (NEK4) of the same molecule?
**A.** Its Inhibition is -12.6%.

**Q.** And the Inhibition [1]?
**A.** The Inhibition was -33.3%.

**Q.** And the Inhibition (PFTAIRE1)?
**A.** Its Inhibition is 2.2%.

**Q.** What about the Inhibition (TLK2; Lys1, YVAVKIHQLNK) of the same molecule?
**A.** Its Inhibition is 25.0%.

**Q.** And the Inhibition (TLK2; [2])?
**A.** The Inhibition was 3.9%.

**Q.** What about the Inhibition (RON) of the same molecule?
**A.** Its Inhibition is 8.9%.

**Q.** What about the Inhibition (CaMK2g) of the same molecule?
**A.** Its Inhibition is -34.8%.

**Q.** What about the Inhibition (IKKe, TBK1) of the same molecule?
**A.** Its Inhibition is -9.4%.

**Q.** What about the Inhibition (p70S6Kb) of the same molecule?
**A.** Its Inhibition is -28.8%.

**Q.** And the Inhibition (MAP2K6; Lys1, HVPSGQIMAVKR)?
**A.** Its Inhibition is 6.1%.

**Q.** And the Inhibition (MAP2K6; Lys2, DVKPSNVLINALGQVK)?
**A.** Its Inhibition is -10.0%.

**Q.** And the Inhibition (CLK3; [3])?
**A.** The Inhibition was -8.7%.

**Q.** And the Inhibition (CLK3; [4])?
**A.** Its Inhibition is -18.4%.

**Q.** What about the Inhibition (NEK7) of the same molecule?
**A.** Its Inhibition is -12.2%.

**Q.** And the Inhibition (CSK; [5])?
**A.** Its Inhibition is -3.3%.

**Q.** And the Inhibition (CSK; Lys1, VAVKCIK)?
**A.** The Inhibition was -17.2%.

**Q.** And the Inhibition (CSK; [6])?
**A.** The Inhibition was 16.1%.

**Q.** What about the Inhibition (MST1) of the same molecule?
**A.** The Inhibition was -24.9%.

**Q.** What about the Inhibition (ZAK) of the same molecule?
**A.** The Inhibition was -16.3%.

**Q.** What about the Inhibition (PI4KB; LLSVIVKCGDDLRQELLAFQVLK) of the same molecule?
**A.** Its Inhibition is -20.5%.

**Q.** And the Inhibition (PI4KB; VPHTQAVVLNSKDK)?
**A.** The Inhibition was 21.1%.

**Q.** What about the Inhibition (CDC2; Lys1, TTGQVVAMKK) of the same molecule?
**A.** Its Inhibition is -1.3%.

**Q.** What about the Inhibition (CDC2; Lys2, DLKPQNLLIDDK) of the same molecule?
**A.** The Inhibition was 29.6%.

**Q.** What about the Inhibition (CDC2; [7]) of the same molecule?
**A.** Its Inhibition is -18.5%.

**Q.** And the Inhibition (CK2a1)?
**A.** Its Inhibition is -0.558%.

**Q.** And the Inhibition (MAP4K5; Lys1, NVHTGELAAVKIIK)?
**A.** The Inhibition was -13.4%.

**Q.** What about the Inhibition (MAP4K5; Lys2, DIKGANILLTDHGDVK) of the same molecule?
**A.** The Inhibition was -6.7%.

**Q.** And the Inhibition (LOK)?
**A.** The Inhibition was -8.3%.

**Q.** What about the Inhibition (RSK2 domain2) of the same molecule?
**A.** The Inhibition was -16.8%.

**Q.** And the Inhibition (LATS2; Lys1, VDTHALYAMKTLR)?
**A.** The Inhibition was -12.9%.

**Q.** What about the Inhibition (LATS2; Lys2, DIKPDNILIDLDGHIK) of the same molecule?
**A.** Its Inhibition is -15.6%.

**Q.** What about the Inhibition (MSK2 domain1; Lys1, LYAMKVLR) of the same molecule?
**A.** The Inhibition was -36.1%.

**Q.** And the Inhibition (MSK2 domain1; Lys2, DLKLENVLLDSEGHIVLTDFGLSK)?
**A.** Its Inhibition is 5.0%.

**Q.** And the Inhibition (NEK6, NEK7)?
**A.** The Inhibition was -8.8%.

**Q.** What about the Inhibition (PIK3C3) of the same molecule?
**A.** The Inhibition was -7.5%.

**Q.** What about the Inhibition (FAM20B) of the same molecule?
**A.** The Inhibition was 20.1%.

**Q.** And the Inhibition (PCTAIRE2, PCTAIRE3)?
**A.** Its Inhibition is -33.1%.

**Q.** What about the Inhibition (SMG1; DTVTIHSVGGTITILPTKTKPK) of the same molecule?
**A.** The Inhibition was -6.7%.

**Q.** And the Inhibition (SMG1; SYPYLFKGLEDLHLDER)?
**A.** Its Inhibition is -44.3%.

**Q.** What about the Inhibition (MAPKAPK2, MAPKAPK3) of the same molecule?
**A.** The Inhibition was -28.4%.

**Q.** What about the Inhibition (CK1d, CK1e) of the same molecule?
**A.** The Inhibition was 6.2%.

**Q.** What about the Inhibition (IRAK1) of the same molecule?
**A.** Its Inhibition is -50.3%.

**Q.** Which results are given for `C=CC(=O)Nc1cc(C(=O)Nc2nc3cccc(C)c3n2[C@@H]2CCCCN(C(=O)C=C)C2)cs1` [ZNL-0056]?
**A.** Inhibition (GSK3B): -4.3%; Inhibition (NEK4): 7.6%; Inhibition [1]: -1.0%; Inhibition (PFTAIRE1): 20.8%; Inhibition (TLK2; Lys1, YVAVKIHQLNK): 15.3%; Inhibition (TLK2; [2]): 18.3%; Inhibition (RON): -9.0%; Inhibition (CaMK2g): -27.3%; Inhibition (IKKe, TBK1): 1.9%; Inhibition (p70S6Kb): -8.5%; Inhibition (MAP2K6; Lys1, HVPSGQIMAVKR): -13.1%; Inhibition (MAP2K6; Lys2, DVKPSNVLINALGQVK): -0.186%; Inhibition (CLK3; [3]): 10.0%; Inhibition (CLK3; [4]): 13.8%; Inhibition (NEK7): -9.3%; Inhibition (CSK; [5]): -1.9%; Inhibition (CSK; Lys1, VAVKCIK): -0.8%; Inhibition (CSK; [6]): 6.7%; Inhibition (MST1): -5.5%; Inhibition (ZAK): 12.1%; Inhibition (PI4KB; LLSVIVKCGDDLRQELLAFQVLK): -9.0%; Inhibition (PI4KB; VPHTQAVVLNSKDK): -25.9%; Inhibition (CDC2; Lys1, TTGQVVAMKK): -18.6%; Inhibition (CDC2; Lys2, DLKPQNLLIDDK): -1.3%; Inhibition (CDC2; [7]): 2.3%; Inhibition (CK2a1): 6.3%; Inhibition (MAP4K5; Lys1, NVHTGELAAVKIIK): -3.7%; Inhibition (MAP4K5; Lys2, DIKGANILLTDHGDVK): 15.2%; Inhibition (LOK): -15.4%; Inhibition (RSK2 domain2): 4.0%; Inhibition (LATS2; Lys1, VDTHALYAMKTLR): 15.4%; Inhibition (LATS2; Lys2, DIKPDNILIDLDGHIK): 23.5%; Inhibition (MSK2 domain1; Lys1, LYAMKVLR): -2.6%; Inhibition (MSK2 domain1; Lys2, DLKLENVLLDSEGHIVLTDFGLSK): 18.7%; Inhibition (NEK6, NEK7): 0.45%; Inhibition (PIK3C3): 6.7%; Inhibition (FAM20B): -17.9%; Inhibition (PCTAIRE2, PCTAIRE3): -16.7%; Inhibition (SMG1; DTVTIHSVGGTITILPTKTKPK): -33.9%; Inhibition (SMG1; SYPYLFKGLEDLHLDER): -11.5%; Inhibition (MAPKAPK2, MAPKAPK3): -7.9%; Inhibition (CK1d, CK1e): 10.8%; Inhibition (IRAK1): 21.6%
